# “Also recorded” adds a separate entry of the source.
# Assays:
# Format in all cases: in vitro ADME
# CYP3A4 = CYP3A4 (Homo sapiens, UniProt P08684); test: CYP3A4 midazolam 1′-hydroxylase inhibition in human liver microsomes; design: tissue Corning Life Sciences; host or cells: pooled human liver microsomes (150 donors)
# Description: (§1) After a 3-min pre-incubation at 37 °C, the reactions were initiated by addition of NADPH and incubation proceeded for 15 min at 37 °C in a shaking water bath. […] The incubation mixtures were centrifuged (13,000× g, 4 min, 4 °C). All assays were performed in triplicate and mean values were used in calculations.
# (§2) Each reaction was initiated by adding the seven-CYP probe substrate cocktail.
# (§3) The reactions were initiated by addition of NADPH at 37 °C and stopped after 10 min by placing the incubation tubes on ice and adding 100 μL of ice-cold methanol containing an internal standard (d9-1-hydroxybufuralol). The incubation mixtures were centrifuged (13,000× g, 4 min, 4 °C) and then 50 μL of the supernatant was diluted with 50 μL of water. Aliquots (5 μL) of the diluted supernatants were analyzed by LC-MS/MS.
# (§4) The metabolites formed from CYP substrates were quantified simultaneously by a LC-MS/MS method described previously. The ESI source settings in positive-ion mode for metabolite ionization were: capillary voltage, 4200 V; vaporizer temperature, 350 °C; capillary temperature, 330 °C; sheath gas pressure, 35 psi; and auxiliary gas pressure, 15 psi. Quantification was performed by selected reaction monitoring (SRM) of the [M + H]^+ ion and the related product ion for each metabolite: acetaminophen, 152.1 > 110.3; N-desethylamodiaquine, 328.1 > 283.0; 7-hydroxycoumarin, 163.0 > 107.2; 4-hydroxybupropion, 256.1 > 238.0; 4′-hydroxydiclofenac, 312.0 > 231.1; 4′-hydroxy-mephenytoin; 235.1 > 150.1; 1′-hydroxybufuralol, 278.1 > 186.1; 1′-hydroxymidazolam, 341.9 > 324.0; ^13C2,^15N-acetaminophen 155.1 > 111.2; and d9-1′-hydroxybufuralol, 287.2 > 187.0. Analytical data were processed using Xcalibur software (version 2.1, Thermo Scientific).
# (§5) The apparent kinetic parameters for inhibitory potential (Ki and kinact values) and inhibition mode were estimated from the fitted curves using the Enzyme Kinetics program (ver. 1.1; Systat Software Inc., San Jose, CA, USA).
# CYP2C8 = target: T1, CYP2C8 (Homo sapiens, UniProt P10632); test: CYP2C8 amodiaquine N-deethylase inhibition and mechanism-based inactivation in human liver microsomes; settings: for IC50: Amodiaquine N-deethylase
# T1 construct: tissue Corning Life Sciences; host or cells: pooled human liver microsomes (150 donors)
# T1 sequence (P10632 1-490): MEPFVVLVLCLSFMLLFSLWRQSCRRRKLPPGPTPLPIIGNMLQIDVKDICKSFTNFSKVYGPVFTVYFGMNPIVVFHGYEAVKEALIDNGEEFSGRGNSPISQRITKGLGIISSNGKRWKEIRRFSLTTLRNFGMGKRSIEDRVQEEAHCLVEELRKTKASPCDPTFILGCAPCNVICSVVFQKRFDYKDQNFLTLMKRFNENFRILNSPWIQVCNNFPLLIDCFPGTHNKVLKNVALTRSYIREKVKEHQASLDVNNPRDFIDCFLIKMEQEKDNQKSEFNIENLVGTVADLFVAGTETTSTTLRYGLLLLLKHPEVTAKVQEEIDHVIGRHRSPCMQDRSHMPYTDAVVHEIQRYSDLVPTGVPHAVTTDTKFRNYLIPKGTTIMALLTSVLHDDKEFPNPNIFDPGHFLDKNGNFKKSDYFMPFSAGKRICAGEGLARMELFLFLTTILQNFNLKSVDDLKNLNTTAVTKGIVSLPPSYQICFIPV
# Description: as §1, §2
# The second reaction was terminated after incubation for 10 min by adding 100-µL amounts of ice-cold methanol containing d9-1′-hydroxybufuralol. The incubation mixtures were centrifuged (13,000× g, 4 min, 4 °C), and then 50 µL of each supernatant was diluted with 50 µL of water. Aliquots (5 µL) of the diluted supernatants were analyzed by LC-MS/MS.
# as §4, §5
# CYP2D6 = target: T2, CYP2D6 (Homo sapiens, UniProt P10635); test: CYP2D6 bufuralol 1′-hydroxylase inhibition in human liver microsomes; settings: at 50 µM
# T2 construct: pooled human liver microsomes (0.2 mg/mL); tissue Corning Life Sciences; host or cells: pooled human liver microsomes (150 donors)
# T2 sequence (P10635 whole entry): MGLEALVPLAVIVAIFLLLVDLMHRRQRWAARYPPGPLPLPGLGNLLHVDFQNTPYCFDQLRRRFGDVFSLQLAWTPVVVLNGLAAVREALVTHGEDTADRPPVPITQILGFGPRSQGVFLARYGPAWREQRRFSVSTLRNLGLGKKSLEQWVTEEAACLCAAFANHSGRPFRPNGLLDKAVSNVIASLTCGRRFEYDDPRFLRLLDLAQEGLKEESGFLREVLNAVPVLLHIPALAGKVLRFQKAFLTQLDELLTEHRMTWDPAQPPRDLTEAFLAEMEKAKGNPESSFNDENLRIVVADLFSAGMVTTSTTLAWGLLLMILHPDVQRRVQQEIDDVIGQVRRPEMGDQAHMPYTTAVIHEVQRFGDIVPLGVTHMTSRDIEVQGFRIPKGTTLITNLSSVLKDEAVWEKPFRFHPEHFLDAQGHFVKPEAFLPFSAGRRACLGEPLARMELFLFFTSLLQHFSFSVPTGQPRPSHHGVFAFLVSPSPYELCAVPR
# Description: as §1, §2
# The metabolites formed from CYP substrates were quantified simultaneously by a LC-MS/MS method described previously. The ESI source settings in positive-ion mode for metabolite ionization were: capillary voltage, 4200 V; vaporizer temperature, 350 °C; capillary temperature, 330 °C; sheath gas pressure, 35 psi; and auxiliary gas pressure, 15 psi. […] Analytical data were processed using Xcalibur software (version 2.1, Thermo Scientific).
# as §5
# CYP2C9 = target: T3, CYP2C9 (Homo sapiens, UniProt P11712); test: CYP2C9 diclofenac 4′-hydroxylase inhibition in human liver microsomes
# T3 construct: tissue Corning Life Sciences; host or cells: pooled human liver microsomes (150 donors)
# T3 sequence (P11712 whole entry): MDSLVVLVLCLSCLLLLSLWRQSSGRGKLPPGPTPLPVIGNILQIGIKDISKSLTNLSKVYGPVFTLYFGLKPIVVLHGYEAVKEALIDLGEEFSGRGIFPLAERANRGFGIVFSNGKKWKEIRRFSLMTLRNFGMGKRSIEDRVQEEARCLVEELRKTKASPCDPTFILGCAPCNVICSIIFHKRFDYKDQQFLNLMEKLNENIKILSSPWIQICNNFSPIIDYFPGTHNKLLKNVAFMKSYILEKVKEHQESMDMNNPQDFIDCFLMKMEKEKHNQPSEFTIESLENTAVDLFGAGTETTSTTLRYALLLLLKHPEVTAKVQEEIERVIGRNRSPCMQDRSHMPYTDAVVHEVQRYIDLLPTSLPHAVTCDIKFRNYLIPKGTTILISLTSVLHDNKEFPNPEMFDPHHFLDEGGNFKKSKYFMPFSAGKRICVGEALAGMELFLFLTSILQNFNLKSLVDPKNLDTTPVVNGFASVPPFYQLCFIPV
# Description: as §1, §2, §3, §4, §5
# Sequence of CYP3A4 (P08684 whole entry): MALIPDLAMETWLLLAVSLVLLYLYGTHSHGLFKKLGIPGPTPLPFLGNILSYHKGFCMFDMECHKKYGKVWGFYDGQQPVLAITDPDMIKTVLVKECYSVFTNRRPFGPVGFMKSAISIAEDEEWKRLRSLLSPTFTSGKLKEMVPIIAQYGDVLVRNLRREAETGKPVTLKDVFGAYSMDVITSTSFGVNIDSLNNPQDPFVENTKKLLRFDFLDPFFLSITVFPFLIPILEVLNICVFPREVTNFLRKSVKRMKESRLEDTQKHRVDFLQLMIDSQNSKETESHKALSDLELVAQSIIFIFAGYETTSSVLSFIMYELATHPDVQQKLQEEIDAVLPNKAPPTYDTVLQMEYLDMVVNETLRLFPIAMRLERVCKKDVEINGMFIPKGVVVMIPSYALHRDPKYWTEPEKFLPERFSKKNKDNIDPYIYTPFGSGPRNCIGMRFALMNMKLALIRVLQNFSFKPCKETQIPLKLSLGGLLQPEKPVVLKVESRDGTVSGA
smiles,measurement,setting,value
"O=C(c1cccc2ccccc12)c1cn(CCCCCF)c2ccccc12 [AM-2201, 1-(5-fluoropentyl-1H-indol-3-yl)-(naphthalene-1-yl)methanone]",Ki,CYP3A4,4 µM
same,Inhibition Mode,CYP3A4; CYP3A4 midazolam 1′-hydroxylation,competitively inhibited; also recorded: competitive
same,IC50,"CYP3A4; IC50 (μM) No Preincubation, Midazolam 1′-hydroxylase, CYP3A4, human liver microsomes, 2.5 μM midazolam",6.9 µM
same,IC50,"CYP3A4; IC50 (μM) With Preincubation, Midazolam 1′-hydroxylase, CYP3A4, 30 min preincubation with NADPH",3.8 µM
same,IC50,"CYP3A4; IC50, CYP3A4-catalyzed midazolam 1′-hydroxylation, abstract",4 µM
same,Ki,CYP2C8,2.1 µM
same,Inhibition Mode,CYP2C8; CYP2C8 amodiaquine N-deethylation,mechanism-based inhibitor
same,IC50,"CYP2C8; IC50 (μM) No Preincubation, CYP2C8, human liver microsomes, 2.5 μM amodiaquine",53.8 µM
same,IC50,"CYP2C8; IC50 (μM) With Preincubation, CYP2C8, 30 min preincubation with NADPH",6.9 µM
same,inhibition of CYP2D6-mediated bufuralol 1′-hydroxylation,CYP2D6,negligibly inhibited
same,Ki,CYP2C9,3.9 µM
same,Inhibition Mode,CYP2C9; CYP2C9 diclofenac 4′-hydroxylation,competitively inhibited; also recorded: competitive
same,IC50,"CYP2C9; IC50 (μM) No Preincubation, Diclofenac 4′-hydroxylase, CYP2C9, human liver microsomes, 10 μM diclofenac",11.9 µM
same,IC50,"CYP2C9; IC50 (μM) With Preincubation, Diclofenac 4′-hydroxylase, CYP2C9, 30 min preincubation with NADPH",11.9 µM
same,IC50,"CYP2C9; IC50, CYP2C9-catalyzed diclofenac 4′-hydroxylation, abstract",3.9 µM

# Reference: PMC6155437 (Molecules : A Journal of Synthetic Chemistry and Natural …, 2017)
